Data from patent US5462965A, “Use of heterocyclic amino-alcohol compounds for treatment of CNS diseases” (GD Searle & Co., priority 1992, dated 1995).
Where two headings read alike, the source gives them in different places.

Assays:
[1] = biological target: polyamine domain of the NMDA receptor-complex; experiment: Binding of [125I]ifenprodil to rat cortical membranes (polyamine domain interaction)
Method: The NMDA receptor-ionophore complex consists of a number of interacting domains, including one for polyamines where ifenprodil binds to exert its noncompetitive antagonism. Ifenprodil was iodinated with Na^125 I/chloramine-T, purified and its binding characterized.
(§1) Membranes were prepared from freshly dissected brains of adult male Sprague-Dawley rats (175-250 g).
^125 I]Ifenprodil: Crude membranes were prepared from freshly dissected cerebral cortices as described elsewhere [P. M. Beart et al, Neurosci. Lett., 124, 187-189 (1991)]. Briefly, assays were performed in 5 mM Tris HCl pH 7.7 containing [^125 I]ifenprodil (20,000 dpms, ~20 pM) and cortical membranes (0.5 mg wet wt.) in a final volume of 0 5 mL Incubations were for 30 min at 20° C., in triplicate, employing 12 concentrations of competing drugs. Non-specific binding was defined with 10 mM spermine. Assays were terminated by rapid filtration through GF/B filter paper and washing [Beart et al, Id., (1991)].
Binding data were analyzed by the iterative curve fitting programs EBDA and LIGAND as fully described elsewhere [Beart et al, Id., (1989)].

[2] = biological target: NMDA receptor-ionophore complex (polyamine domain / NMDA ionophore); experiment: Spermidine (polyamine)-stimulated [3H]TCP binding, functional model of coupling of the polyamine domain to the NMDA ionophore; settings: spermidine-stimulated [3H]TCP binding, rat cortex; for IC50: at least two independent experiments
Method: Polyamine-stimulated [^3 H]TCP: Crude synaptic ("buffy coat") membranes were prepared from freshly dissected cerebral cortices. Membrane preparations were extensively washed employing 3 freeze-thaw cycles. The final pellet was stored at -70° C. for 1-7 days prior to assay. On the day of assay, the membrane pellet was washed twice by resuspension and centrifugation (45,000 g, 10 min. ). […] Assays were terminated by rapid vacuum filtration through GF/B filter paper (pre-soaked in 0.5% aqueous polyethyleneimine) in a Brandel M-48R Cell Harvester and thorough washing with ice-cold 5 mM Tris HCl pH 7.7.

sigma site [3] = experiment: Sigma site binding: inhibition of R(+)-[3H]3-PPP binding; design: species or system rat; settings: for model describing the interaction with the site labelled by R(+)-[3H]3-PPP / affinity for the high affinity sigma site: in words; for affinity for the high affinity sigma site: computer-assisted analyses
Method: as §1
R(+-^3 H]3-PPP: Crude membranes were prepared from whole brain (minus cerebellum) as described previously [P. M. Beart et al, J. Neurochem., 53, 779-788 (1989)]. A filtration binding assay was employed under similar conditions to those of Largent et al (1986) with 3 nM R (+)-[^3 H]-3-PPP and a 90 min. incubation at 25° C. (Beart et al, 1989). Non-specific binding was defined with 10 μ1,3-di(2-tolyl)guanidine (DTG).
Binding data were analyzed by the iterative curve fitting programs EBDA and LIGAND as fully described elsewhere [Beart et al, Id., (1989)]. Results obtained from experiments examining spermidine-stimulated binding of ^3 H]TCP were analyzed by the program FLEXIFIT [V. Guardabasso et al, FASEB J., 2, 209-215 (1988)] which iteratively fits data to a sigmoidal model providing estimates of IC50 and slope for the drug under study.

NMDA receptor = settings: C. Carter et al, 1988; cited from earlier work
sigma site [4] = settings: P. C. Contreras et al, 1990; cited from earlier work
sigma site [5] = settings: J. Benavides et al, 1990; cited from earlier work
NMDA receptor complex = settings: [3H]TCP and [3H]dizocilpine (MK-801); cited from earlier work
[6] = Arch. Int. Pharm., 1983; cited from earlier work
[7] = rat cortical membranes, mean ± s.e.m., n = 3 or 4, read-out: [125I] IFENPRODIL Kd
[8] = one site fit, pooled data, n = 2 independent experiments, read-out: KG = Dissociation constant for one site fit
[9] = two site fit, fitted better to 2 site model (P < 0.05)
[10] = two site fit, fitted better to 2 site model (P < 0.05), read-out: KH = Dissociation constant at high affinity site for two site fit
[11] = two site fit, fitted better to 2 site model (P < 0.05), read-out: KL = Dissociation constant at low affinity site for two site fit
[12] = n=4 (spermine), n=3 (spermidine), read-out: dissociation constants for spermine and spermidine (inhibition of specific [125I]ifenprodil binding)

Structure (SMILES) | Kd [1, 7] [µM] | IC50 [2] [µM] | Kd (sigma site [3]; [8]) [µM] | % RH = Percent of high affinity binding sites for two site fit (sigma site [3]; [9]) [%] | Kd (sigma site [3]; [10]) [µM] | Kd (sigma site [3]; [11]) [µM] | SPERMIDINE [3H] TCP IC50 (class symbol: inhibitory at 50 μM) [2] | also measured
CC(C(O)c1ccc(O)cc1)N1CCC(Cc2ccccc2)CC1 (stereo not drawn) [Ifenprodil, reference compound] | 0.15 ± 0.03 | 6.8 | 0.02 | 82 | 0.011 | 19 |  | model describing the interaction with the site labelled by R(+)-[3H]3-PPP (sigma site [3]): better described by a two-site model; NMDA receptor antagonism (NMDA receptor): noncompetitive NMDA receptor antagonists; affinity for the sigma site in vitro (sigma site [4]): considerable affinity; sigma binding affinity in vivo (sigma site [5]): Sigma binding affinity has also been found in vivo
NCCCNCCCCNCCCN [spermine, reference compound] |  |  |  |  |  |  |  | dissociability of [125I]ifenprodil specific binding ([1]; 1 mM spermine): dissociable; Kd [1, 12]: 24 µM; effect on binding of channel ligands (NMDA receptor complex): profoundly enhance the binding of channel ligands
CC(CCCc1ccccc1)NC(C)C(O)c1ccc2c(c1)CCCS2 (stereo not drawn) [Compound 42] | 2.7 ± 0.4 |  |  |  |  |  | + | 
C=CCN1CCC2(C)c3cc(O)ccc3CC1C2C (single isomer, unassigned; (+)) [(+)SKF10.047, N-allylnormetazocine, reference compound] |  |  | 1.5 | 60 | 0.048 | 6.3 |  | 
C[C@H](NCCCCc1ccccc1)[C@@H](O)c1ccc2c(c1)CCS2 (relative stereo) [Compound 183] | 9.3 ± 5.4 |  | 0.45 |  |  |  | + | % RH = Percent of high affinity binding sites for two site fit (sigma site [3]; two site fit, value in parentheses (exception to better 2 site fit)): 84%; Kd (sigma site [3]; two site fit, value in parentheses (exception to better 2 site fit), read-out: KH = Dissociation constant at high affinity site for two site fit): 0.3 µM; Kd (sigma site [3]; two site fit, value in parentheses (exception to better 2 site fit), read-out: KL = Dissociation constant at low affinity site for two site fit): 130 µM
CC(NCCCCc1ccccc1)C(O)c1ccc2c(c1)CCS2 (single isomer, unassigned) [Compound 184] | 6.3 ± 1.8 |  | 0.23 | 54 |  |  | + | affinity for the high affinity sigma site (sigma site [3]): appreciable affinity
C[C@H](NCCCCc1ccccc1)[C@H](O)c1ccc2c(c1)CCS2 (relative stereo) [Compound 7] | 3.6 ± 0.3 | 8.2 | 0.17 | 66 | 0.044 | 11 |  | affinity for the high affinity sigma site (sigma site [3]): appreciable affinity; antihypertensive effect [6]: antihypertensive effect; anxiolytic activity [6]: anxiolytic activity
CC(CCc1ccccc1)NC(C)C(O)c1ccc(O)cc1 (stereo not drawn) [Nylidrin, reference compound] | 30 ± 8.5 | 73 | 0.038 | 86 | 0.019 | 11 |  | model describing the interaction with the site labelled by R(+)-[3H]3-PPP (sigma site [3]): better described by a two-site model
CC(NCCCc1ccccc1)C(O)c1ccc2c(c1)CCCS2 (stereo not drawn) [Compound 75] | 5 ± 1.4 |  | 0.34 | 67 | 0.086 | 4.3 | + | 
NCCCCNCCCN [spermidine, reference compound] |  |  |  |  |  |  |  | Kd [1, 12]: 44 µM; effect on binding of channel ligands (NMDA receptor complex): profoundly enhance the binding of channel ligands
